Measured values reported in patent publication US9414589B2, “N-cyclylamides as nematicides” (SYNGENTA PARTICIPATIONS AG, priority 2012, dated 2016).
Each block holds one molecule with its values, some of them ahead of it.

Key:
[1] = tested on: Meloidogyne spp. (Root-knot nematode); assay: Meloidogyne spp. contact activity, preventive, pouch test (cucumber); type: in vivo; conditions: cucumber seed in pouch, test solutions at 200 ppm, galls per root system after twelve days; cis vs trans isomers
Protocol: (§1) Meloidogyne spp. (Root-knot nematode) contact activity, preventive. Pouch test. Filter papers (9 cm×4.5 cm) with a small pocket were placed into plastic pouches (12 cm×6 cm). One cucumber cv. Toshka seed was placed in the centre of the filter paper pocket of all the pouches needed for a test. The cucumber seeds in the pouches were treated with test solutions at 200 ppm by pipetting the solution directly over the cucumber seed in the filter paper pocket in the pouch. Prior to application, the compound solution was prepared at twice the concentration required and the egg suspension is prepared with FORL nutrient solution with 3000 eggs/0.5 ml. After applying all the treatments, 3000 eggs (in 0.5 ml of FORL nutrient solution) were pipetted into the pouches. The pouches were incubated in a moist chamber for twelve days and watered regularly to maintain good filter paper moisture essential for the growing cucumber root system. After this period, the filter paper containing the germinated cucumber seedling was removed from the plastic pouch to assess the number of galls caused by Meloidogyne spp. per root system. […] Meloidogyne spp. (Root-knot nematode) contact activity, preventive, drench test. Cucumber cv. Toshka seeds were sown directly into pots filled with a sandy substrate. Six days later pots were each treated with 5 ml of a WP10 suspension of the test compound at 20 ppm. Hereafter pots were inoculated with 3000 eggs of M. incognita. The trial was harvested fourteen days after trial application and inoculation. Root galling was assessed according to Zeck's gall index (Zeck, 1971).

[2] = tested on: Meloidogyne spp. (Root-knot nematode); assay: Meloidogyne spp. contact activity, preventive, drench test (cucumber in pots); type: in vivo, M. incognita; conditions: cis vs trans isomers
Protocol: as §1, with “Filter” for “Meloidogyne spp. (Root-knot nematode) contact activity, preventive. Pouch test. Filter”

SMILES: O=C(NC1CCC1c1ccc(Cl)cc1Cl)c1ncccn1 (centres unmarked) [57.012]
Nem 1 (Meloidogyne spp. contact activity, preventive, pouch test; % galling) [1]: 98%
Nem 2 (Meloidogyne spp. contact activity, preventive, drench test; % galling) [2]: 83%

SMILES: O=C(NC1CCC1c1ccc(Cl)cc1Cl)c1cccnc1C(F)(F)F (centres unmarked) [57.011]
Nem 1 (Meloidogyne spp. contact activity, preventive, pouch test; % galling) [1]: 100%
Nem 2 (Meloidogyne spp. contact activity, preventive, drench test; % galling) [2]: 100%

melting point: 126 to 128 °C
SMILES: O=C(N[C@@H]1CCC1c1ccc(Cl)cc1Cl)c1ccccc1C(F)(F)F (some centres unmarked) [57.009]
Nem 1 (Meloidogyne spp. contact activity, preventive, pouch test; % galling) [1]: 100%

SMILES: O=C(NC1CCC1c1ccc(Cl)cc1F)c1c(F)cccc1F (centres unmarked) [57.014]
Nem 1 (Meloidogyne spp. contact activity, preventive, pouch test; % galling) [1]: 93%
Nem 2 (Meloidogyne spp. contact activity, preventive, drench test; % galling) [2]: 100%

melting point: 147 to 148 °C
SMILES: O=C(N[C@H]1CCC1c1ccc(Cl)cc1Cl)c1ccccc1C(F)(F)F (stereo partly drawn) [57.009trans]
Nem 1 (Meloidogyne spp. contact activity, preventive, pouch test; % galling) [1]: 68%
Nem 2 (Meloidogyne spp. contact activity, preventive, drench test; % galling) [2]: 48%
